Source: patent US20020022633A1, “Inhibitors of prenyl-protein transferase” (priority 2000, published 2002)
Counter-ions that a name gives are not always drawn.

Molecular target: T1, human FPTase (Homo sapiens, UniProt P49354+P49356)
T1 construct: made in house
Assay: In vitro inhibition of ras farnesyl transferase (FPTase transferase assay)
Type: biochemical
Settings: recombinant FPTase; 650 nM Ras-CVLS, 100 nM farnesyl diphosphate; 30° C.; read-out: IC50, inhibitory activity against human FPTase
Protocol: In vitro Inhibition of ras Farnesyl Transferase
Transferase Assays. Isoprenyl-protein transferase activity assays are carried out at 30° C. unless noted otherwise. A typical reaction contains (in a final volume of 50 µL): [^3H]farnesyl diphosphate, Ras protein , 50 mM HEPES, pH 7.5, 5 mM MgCl2, 5 mM dithiothreitol, 10 μM ZnCl2, 0.1% polyethyleneglycol (PEG) (15,000-20,000 mw) and isoprenyl-protein transferase. The FPTase employed in the assay is prepared by recombinant expression as described in Omer, C. A., Kral, A. M., Diehl, R. E., Prendergast, G. C., Powers, S., Allen, C. M., Gibbs, J. B. and Kohl, N. E. (1993) Biochemistry 32:5167-5176. After thermally pre-equilibrating the assay mixture in the absence of enzyme, reactions are initiated by the addition of isoprenyl-protein transferase and stopped at timed intervals (typically 15 min) by the addition of 1 M HCl in ethanol (1 mL). The quenched reactions are allowed to stand for 15 m (to complete the precipitation process). After adding 2 mL of 100% ethanol, the reactions are vacuum-filtered through Whatman GFIC filters. Filters are washed four times with 2 mL aliquots of 100% ethanol, mixed with scintillation fluid (10 mL) and then counted in a Beckman LS3801 scintillation counter. […]

SMILES: N#Cc1ccc2cc1Oc1ccc3ccc(=O)n(c3c1)-c1ccc(cn1)CCc1cncn1C2 [Example 1, 17-Oxo-22,23-dihydro-5H-12,14:18,21-dietheno-6,10-metheno-benzo[d]imidazo [4,3-l][1,5,7,13]oxatriazacyclononadecine-9-carbonitrile dihydrochloride]
- IC50: ≤ 30 µM
